Data from patent US20110237448A1, “CARBOHYDRATE BINDING MODULE WITH AFFINITY FOR INSOLUBLE XYLAN” (The Board of Trustees of the University of Illinois, priority 2009, published 2011).
Changes are numbered by the printed parent chain. Entries after “also recorded” stand apart in the source; their conditions may differ.

What was measured:
[1] = biological target: Fibrobacter succinogenes S85 FSUAxe6B truncational mutant TM5 (FPd-1 domain), SEQ ID NO: 2 (Fibrobacter succinogenes, UniProt C9RS24); test: Isothermal titration calorimetric (ITC) analysis of TM5 (FPd-1 domain); type: binding; conditions: 25° C., 100 μM protein, 50 mM Na2HPO4—HCl buffer pH 7.0, 100 mM NaCl
Protocol: Isothermal titration calorimetric analysis was conducted to determine whether the FPd-1 domain can bind to soluble substrates. TM5 was tested for binding with arabinoxylan, xylobiose, and xylopentaose (FIG. 10). If there is binding affinity between two materials, a binding heat that follows a pattern such as that for CaCl2 vs. EDTA in the positive control will be observed.
For isothermal titration calorimetric (ITC) analysis, measurements were performed at 25° C. using a VP-ITC calorimeter (MicroCal, Inc, Northhampton, Mass.) following the manufacturer's recommended procedures. All samples were extensively dialyzed against 50 mM Na2HPO4—HCl buffer (pH 7.0), 100 mM NaCl, and all ligands were dissolved in the same buffer. The protein sample (100 μM) was injected with successive 10-μl aliquots of ligand at 300-s intervals.

[2] = biological target: T1, Fibrobacter succinogenes S85 acetylxylan esterase FSUAxe6B (Axe6B, FSU2267), wild-type (WT), SEQ ID NO: 31 (Fibrobacter succinogenes, UniProt C9RS24); test: Steady state kinetic analysis of acetylxylan esterase activity, FSUAxe6B wild-type (WT); type: biochemical; conditions: tetra-acetyl-xylopyranoside as substrate, 37° C.
T1 sequence (C9RS24 30-552): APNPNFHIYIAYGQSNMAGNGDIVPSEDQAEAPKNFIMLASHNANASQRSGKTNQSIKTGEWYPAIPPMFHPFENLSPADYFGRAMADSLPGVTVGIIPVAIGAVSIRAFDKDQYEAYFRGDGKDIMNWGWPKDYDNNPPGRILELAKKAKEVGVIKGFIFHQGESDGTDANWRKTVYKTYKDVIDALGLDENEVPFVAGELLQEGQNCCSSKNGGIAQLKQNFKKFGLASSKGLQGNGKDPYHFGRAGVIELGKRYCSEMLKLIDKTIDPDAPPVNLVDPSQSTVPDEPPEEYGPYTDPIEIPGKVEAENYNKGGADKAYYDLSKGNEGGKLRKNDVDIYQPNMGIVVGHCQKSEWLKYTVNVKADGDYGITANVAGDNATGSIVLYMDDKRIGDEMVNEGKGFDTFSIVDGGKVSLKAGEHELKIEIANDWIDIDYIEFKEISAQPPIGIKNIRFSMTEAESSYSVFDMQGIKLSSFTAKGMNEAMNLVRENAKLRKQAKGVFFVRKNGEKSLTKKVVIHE
Protocol: Assays were carried out at 37° C. Five microliters of 1 μM enzyme and 20 μl of R2 enzyme solution (containing acetate kinase, pyruvate kinase, and […] in 100 mM Tris-HCl, pH 7.4, 3 mM MgCl2) were thoroughly mixed. The tetra-acetyl-xylopyranoside was prepared in […] of R1 solution (NADH, ATP, phospho-enol-pyruvate, and pyruvate). The concentrations of the ingredients R1 and R2 solutions were pre-determined by the manufacturer (Megazyme). Both solutions were incubated separately at 37° C. for 3 min to allow equilibration, and then mixed to start the reaction. Initial rates were plotted against the tetra-acetyl-xylopyranoside concentrations, and the kinetic parameters were determined by Michaelis-Menten equation utilizing Graph Pad Prism v5.01.
Enzyme assays and steady state kinetics—Acetylxylan esterase activity was assayed using tetra-acetyl-xylopyranoside (Toronto Research Chemicals Inc., Ontario, Canada) for all proteins in this study, and the released of acetic acid was measured using an acetic acid detection kit (Megazyme, Bray, Ireland) following the manufacturer's instructions. The reduction of NADH was monitored continuously at an absorbance of 340 nm using Synergy 2 Microplate reader (BioTek, Winooski, Vt.) using the path-length correction feature. All assays were carried out at 37° C. […]

[3] = biological target: T2, Fibrobacter succinogenes S85 FSUAxe6B truncational mutant TM1 (CE6+CBM6) (Fibrobacter succinogenes, UniProt C9RS24); test: Steady state kinetic analysis, truncational mutant TM1; type: biochemical; conditions: tetra-acetyl-xylopyranoside as substrate, 37° C.
T2 construct: primers F1/R2, modified pET-28a, E. coli BL21(DE3), purified
T2 sequence (C9RS24 30-479 limits assumed): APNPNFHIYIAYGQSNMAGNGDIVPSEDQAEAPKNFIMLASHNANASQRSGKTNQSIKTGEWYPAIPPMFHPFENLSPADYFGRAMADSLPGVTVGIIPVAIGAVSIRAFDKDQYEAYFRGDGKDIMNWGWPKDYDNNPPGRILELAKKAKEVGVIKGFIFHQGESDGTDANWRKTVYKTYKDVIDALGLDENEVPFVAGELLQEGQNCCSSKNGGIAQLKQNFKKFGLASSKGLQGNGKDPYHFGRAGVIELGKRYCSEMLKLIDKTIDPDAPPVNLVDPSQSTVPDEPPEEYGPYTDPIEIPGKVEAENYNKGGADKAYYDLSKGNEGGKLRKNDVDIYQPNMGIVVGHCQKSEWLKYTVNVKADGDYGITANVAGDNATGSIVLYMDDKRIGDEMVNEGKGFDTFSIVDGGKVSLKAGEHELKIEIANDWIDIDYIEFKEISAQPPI
Source text: (§1) To delineate and investigate the modules present in FSUAxe6B for functional role assignments, a gene truncation strategy was adopted. To create the truncated proteins, the glycines in loop regions were selected as the terminal amino acids of our constructs. The construct TM1 (CE6+CBM6) was designed to investigate the contribution of FPd-1 to the wild-type (WT) protein in terms of its catalytic (esterase) and carbohydrate binding activities. Likewise, TM2 (CE6) was constructed for identifying the role of the putative CBM6 on the two potential functions of the protein. […]
(§2) Assays were carried out at 37° C. […] The concentrations of the ingredients R1 and R2 solutions were pre-determined by the manufacturer (Megazyme). […] Initial rates were plotted against the tetra-acetyl-xylopyranoside concentrations, and the kinetic parameters were determined by Michaelis-Menten equation utilizing Graph Pad Prism v5.01.
(§3) Enzyme assays and steady state kinetics—Acetylxylan esterase activity was assayed using tetra-acetyl-xylopyranoside (Toronto Research Chemicals Inc., Ontario, Canada) for all proteins in this study, and the released of acetic acid was measured using an acetic acid detection kit (Megazyme, Bray, Ireland) following the manufacturer's instructions. […] The concentrations of the ingredients R1 and R2 solutions were pre-determined by the manufacturer (Megazyme). […]

[4] = biological target: T3, Fibrobacter succinogenes S85 FSUAxe6B truncational mutant TM2 (CE6) (Fibrobacter succinogenes, UniProt C9RS24); test: Steady state kinetic analysis, truncational mutant TM2; type: biochemical; conditions: tetra-acetyl-xylopyranoside as substrate, 37° C., means ± standard errors
T3 construct: primers F1/R3, modified pET-28a, E. coli BL21(DE3), purified
T3 sequence (C9RS24 30-297): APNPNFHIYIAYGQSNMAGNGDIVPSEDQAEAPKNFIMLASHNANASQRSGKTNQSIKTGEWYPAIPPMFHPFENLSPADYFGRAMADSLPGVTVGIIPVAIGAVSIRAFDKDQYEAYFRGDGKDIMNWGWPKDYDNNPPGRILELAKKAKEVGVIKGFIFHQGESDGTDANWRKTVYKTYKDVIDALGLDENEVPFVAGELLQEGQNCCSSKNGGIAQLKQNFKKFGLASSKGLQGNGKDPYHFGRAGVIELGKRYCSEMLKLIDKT
Source text: as §1, §2, §3

[5] = biological target: T4, Fibrobacter succinogenes S85 FSUAxe6B variant E194N (Fibrobacter succinogenes, UniProt C9RS24, E194N); test: Steady state kinetic analysis, E194N mutant; type: biochemical; conditions: tetra-acetyl-xylopyranoside as substrate, 37° C., 10 μM E194N protein
T4 sequence (C9RS24 30-552 E194N): T1 sequence (C9RS24 30-552) with E165N
Protocol: (§4) Site-directed mutagenesis—Site-directed mutagenesis was carried out using the QuikChange Multi Site-Directed Mutagenesis Kit (Stratagene), according to the manufacturer's instructions.
(§5) Enzyme assays and steady state kinetics—Acetylxylan esterase activity was assayed using tetra-acetyl-xylopyranoside (Toronto Research Chemicals Inc., Ontario, Canada) for all proteins in this study, and the released of acetic acid was measured using an acetic acid detection kit (Megazyme, Bray, Ireland) following the manufacturer's instructions. The reduction of NADH was monitored continuously at an absorbance of 340 nm using Synergy 2 Microplate reader (BioTek, Winooski, Vt.) using the path-length correction feature. All assays were carried out at 37° C. […] The concentrations of the ingredients R1 and R2 solutions were pre-determined by the manufacturer (Megazyme). […] For active-site mutants with lower activity, the kinetic parameters were determined at a concentration of 10 μM for E194N protein and 2 μM for E194A, D270N, and D270A proteins, respectively. Initial rates were plotted against the tetra-acetyl-xylopyranoside concentrations, and the kinetic parameters were determined by Michaelis-Menten equation utilizing Graph Pad Prism v5.01.

[6] = biological target: T5, Fibrobacter succinogenes S85 FSUAxe6B variant E194A (Fibrobacter succinogenes, UniProt C9RS24, E194A); test: Steady state kinetic analysis, E194A mutant; type: biochemical; conditions: tetra-acetyl-xylopyranoside as substrate, 37° C., 2 μM E194A protein
T5 sequence (C9RS24 30-552 E194A): T1 sequence (C9RS24 30-552) with E165A
Protocol: as §4, §5

[7] = biological target: T6, Fibrobacter succinogenes S85 FSUAxe6B variant D270A (Fibrobacter succinogenes, UniProt C9RS24, D270A); test: Steady state kinetic analysis, D270A mutant; type: biochemical; conditions: tetra-acetyl-xylopyranoside as substrate, 37° C., 2 μM D270A protein
T6 sequence (C9RS24 30-552 D270A): T1 sequence (C9RS24 30-552) with D241A
Protocol: as §4, §5

[8] = tested on: Fibrobacter succinogenes S85 acetylxylan esterase Axe6A; conditions: from ref. 16; substrate not stated at the place; cited from earlier work
[9] = tested on: Fibrobacter succinogenes S85 acetylxylan esterase Axe6B; conditions: comparison with Axe6A; substrate not stated at the place; cited from earlier work

SMILES	ITC binding [1]	kcat/Km [2] [M⁻¹ s⁻¹]	kcat ([2]; means ± standard errors) [s⁻¹]	kcat/Km [3] [M⁻¹ s⁻¹]	kcat [4] [s⁻¹]	kcat [5] [s⁻¹]	kcat/Km [5] [M⁻¹ s⁻¹]	kcat [6] [s⁻¹]	kcat/Km [6] [M⁻¹ s⁻¹]	kcat [7] [s⁻¹]	kcat/Km [7] [M⁻¹ s⁻¹]	Km [8] [µM]	Km [9] [µM]
OC1OC[C@@H](O[C@@H]2OC[C@@H](O)[C@H](O)[C@H]2O)[C@H](O)[C@H]1O (some centres unmarked) [xylobiose]	no significant peaks were observed; also recorded: does not bind												
CC(=O)O[C@@H]1OC[C@@H](OC(C)=O)[C@H](OC(C)=O)[C@H]1OC(C)=O [tetra-acetyl-xylopyranoside]		190000	15	170000	13	2.8	400	2.9	14000	1.8	9000	80	60
OC1OC[C@@H](O[C@@H]2OC[C@@H](O[C@@H]3OC[C@@H](O[C@@H]4OC[C@@H](O[C@@H]5OC[C@@H](O)[C@H](O)[C@H]5O)[C@H](O)[C@H]4O)[C@H](O)[C@H]3O)[C@H](O)[C@H]2O)[C@H](O)[C@H]1O (some centres unmarked) [xylopentaose]	no significant peaks were observed; also recorded: does not bind												
